Reference: US9284321B2, “Piperazino[1,2-a]indol-1-ones and [1,4]diazepino[1,2-a]indol-1-one” (Hoffmann-La Roche Inc., priority 2012, dated 2016)

Columns and labels:
[1] = test system: human embryonic stem cell derived neural stem cells (NSCs); assay: Neural Stem Cell Proliferation Assay (neurogenesis assay, ATP levels by CellTiterGlo); type: cell-based; details: 96 h, compound concentration at which 150% activity of control (100%) is reached, NSC proliferation by ATP level after 4 days incubation, dose response 8 μM to 8 nM
Procedure, shortened: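 Read-out is CellTiterGlo ATP luminescence after 4-day culture (37 °C, 5% CO2) of dual-SMAD-derived human ESC NSCs, dosed 4 h post-seeding at 8 μM to 8 nM (11 points, 2-fold). EC150 marks the concentration reaching 150% of the media-only control (0.25% DMSO).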

| Compound | melting point [°C] | EC (150% of control) [1] [µM] |
| --- | --- | --- |
| Cc1cc(-c2cc(C#N)cc3cc4n(c23)CCCNC4=O)ccc1F [Example 235, 7-(4-Fluoro-3-methylphenyl)-1-oxo-2,3,4,5-tetrahydro-[1,4]diazepino[1,2-a]indole-9-carbonitrile] | 223.5 | 0.77 |
| N#Cc1cc(-c2ccc(Cl)cc2Cl)c2c(c1)cc1n2CCCNC1=O [Example 236, 7-(2,4-Dichlorophenyl)-1-oxo-2,3,4,5-tetrahydro-[1,4]diazepino[1,2-a]indole-9-carbonitrile] | 253 | 0.13 |
| N#Cc1ccc(-c2cc(C#N)cc3cc4n(c23)CCCNC4=O)cc1 [Example 237, 7-(4-Cyanophenyl)-1-oxo-2,3,4,5-tetrahydro-[1,4]diazepino[1,2-a]indole-9-carbonitrile] | 257 | 0.22 |
| N#Cc1cc(-c2cc(F)cc(F)c2)c2c(c1)cc1n2CCCNC1=O [Example 238, 7-(3,5-Difluorophenyl)-1-oxo-2,3,4,5-tetrahydro-[1,4]diazepino[1,2-a]indole-9-carbonitrile] | 211 | 1 |
| N#Cc1cc(-c2cccc(F)c2)c2c(c1)cc1n2CCCNC1=O [Example 239, 7-(3-Fluorophenyl)-1-oxo-2,3,4,5-tetrahydro-[1,4]diazepino[1,2-a]indole-9-carbonitrile] | 210.5 | 0.61 |
| Cc1c2n(c3c(-c4cc(F)c(F)c(F)c4)cc(C#N)cc13)CCNC2=O [Example 240, 10-Methyl-1-oxo-6-(3,4,5-trifluorophenyl)-3,4-dihydro-2H-pyrazino[1,2-a]indole-8-carbonitrile] | 253 | 0.11 |
| Cc1c2n(c3c(-c4ccccc4)cc(C#N)cc13)CCNC2=O [Example 241, 10-Methyl-1-oxo-6-phenyl-3,4-dihydro-2H-pyrazino[1,2-a]indole-8-carbonitrile] | 253 | 0.062 |
| Cc1c2n(c3c(-c4ccc(N)nc4)cc(C#N)cc13)CCNC2=O [Example 242, 6-(6-Aminopyridin-3-yl)-10-methyl-1-oxo-3,4-dihydro-2H-pyrazino[1,2-a]indole-8-carbonitrile] | 332 | 0.68 |
| Cc1c2n(c3c(-c4ccncc4)cc(C#N)cc13)CCNC2=O [Example 243, 10-Methyl-1-oxo-6-pyridin-4-yl-3,4-dihydro-2H-pyrazino[1,2-a]indole-8-carbonitrile] | 307 | 0.09 |
| Cc1c2n(c3c(-c4cc(F)c(F)c(F)c4)cc(C#N)cc13)CCCNC2=O [Example 244, 11-Methyl-1-oxo-7-(3,4,5-trifluorophenyl)-2,3,4,5-tetrahydro-[1,4]diazepino[1,2-a]indole-9-carbonitrile] | 306 | 0.47 |
| Cc1c2n(c3c(-c4ccccc4)cc(C#N)cc13)CCCNC2=O [Example 245, 11-Methyl-1-oxo-7-phenyl-2,3,4,5-tetrahydro-[1,4]diazepino[1,2-a]indole-9-carbonitrile] | 258 | 0.095 |
| Cc1c2n(c3c(-c4ccc(F)c(F)c4F)cc(C#N)cc13)CCNC2=O [Example 246, 10-Methyl-1-oxo-6-(2,3,4-trifluorophenyl)-3,4-dihydro-2H-pyrazino[1,2-a]indole-8-carbonitrile] | 238 | 0.084 |
| COc1ccc(-c2cc(C#N)cc3c(C)c4n(c23)CCNC4=O)cc1 [Example 247, 6-(4-Methoxyphenyl)-10-methyl-1-oxo-3,4-dihydro-2H-pyrazino[1,2-a]indole-8-carbonitrile] | 285 | 0.03 |
| N#Cc1cc(-c2cc(F)c(F)c(F)c2)c2c(c1)cc1n2CCCNC1=O [Example 248, 1-Oxo-7-(3,4,5-trifluorophenyl)-2,3,4,5-tetrahydro-[1,4]diazepino[1,2-a]indole-9-carbonitrile] | 248.5 | 0.62 |
| N#Cc1cc(-c2ccc(Cl)c(Cl)c2)c2c(c1)cc1n2CCCNC1=O [Example 249, 7-(3,4-Dichlorophenyl)-1-oxo-2,3,4,5-tetrahydro-[1,4]diazepino[1,2-a]indole-9-carbonitrile] | 217.5 | 0.31 |
| Cc1c2n(c3c(-c4ccncc4)cc(C#N)cc13)CCCNC2=O [Example 250, 11-Methyl-1-oxo-7-pyridin-4-yl-2,3,4,5-tetrahydro-[1,4]diazepino[1,2-a]indole-9-carbonitrile] | 285 | 0.15 |
| Cc1c2n(c3c(-c4ccc(N)nc4)cc(C#N)cc13)CCCNC2=O [Example 251, 7-(6-Aminopyridin-3-yl)-11-methyl-1-oxo-2,3,4,5-tetrahydro-[1,4]diazepino[1,2-a]indole-9-carbonitrile] | 306 | 0.29 |
| N#Cc1cc(-c2ccc(Cl)c(F)c2)c2c(c1)cc1n2CCCNC1=O [Example 252, 7-(4-Chloro-3-fluorophenyl)-1-oxo-2,3,4,5-tetrahydro-[1,4]diazepino[1,2-a]indole-9-carbonitrile] | 221.5 | 1.38 |

The next lines start with results.

| melting point [°C] | Compound | EC (150% of control) [1] [µM] |
| --- | --- | --- |
| 250.5 | Cc1ccc(-c2cc(C#N)cc3cc4n(c23)CCCNC4=O)cc1F [Example 253, 7-(3-Fluoro-4-methylphenyl)-1-oxo-2,3,4,5-tetrahydro-[1,4]diazepino[1,2-a]indole-9-carbonitrile] | 0.65 |
| 230.5 | N#Cc1cc(-c2ccc(OC(F)(F)F)cc2)c2c(c1)cc1n2CCCNC1=O [Example 255, 1-Oxo-7-[4-(trifluoromethoxy)phenyl]-2,3,4,5-tetrahydro-[1,4]diazepino[1,2-a]indole-9-carbonitrile] | 0.3 |
| 305.5 | CS(=O)(=O)c1ccc(-c2cc(C#N)cc3cc4n(c23)CCCNC4=O)cc1 [Example 256, 7-(4-Methylsulfonylphenyl)-1-oxo-2,3,4,5-tetrahydro-[1,4]diazepino[1,2-a]indole-9-carbonitrile] | 1.42 |
| 286.5 | N#Cc1cc(-c2ccnc(Cl)c2)c2c(c1)cc1n2CCCNC1=O [Example 257, 7-(2-Chloropyridin-4-yl)-1-oxo-2,3,4,5-tetrahydro-[1,4]diazepino[1,2-a]indole-9-carbonitrile] | 0.54 |
| 277 | Cc1ccc(-c2cc(C#N)cc3c(C)c4n(c23)CCNC4=O)cc1 [Example 258, 10-Methyl-6-(4-methylphenyl)-1-oxo-3,4-dihydro-2H-pyrazino[1,2-a]indole-8-carbonitrile] | 0.035 |
| 226 | Cc1c2n(c3c(-c4cccc(F)c4)cc(C#N)cc13)CCNC2=O [Example 259, 6-(3-Fluorophenyl)-10-methyl-1-oxo-3,4-dihydro-2H-pyrazino[1,2-a]indole-8-carbonitrile] | 0.06 |
| 245 | Cc1c2n(c3c(-c4ccc(Cl)c(Cl)c4)cc(C#N)cc13)CCNC2=O [Example 260, 6-(3,4-Dichlorophenyl)-10-methyl-1-oxo-3,4-dihydro-2H-pyrazino[1,2-a]indole-8-carbonitrile] | 0.12 |
| 303 | Cc1c2n(c3c(-c4cc(F)cc(F)c4)cc(C#N)cc13)CCNC2=O [Example 261, 6-(3,5-Difluorophenyl)-10-methyl-1-oxo-3,4-dihydro-2H-pyrazino[1,2-a]indole-8-carbonitrile] | 0.091 |
| 277 | COc1ccc(-c2cc(C#N)cc3c(C)c4n(c23)CCCNC4=O)cc1 [Example 262, 7-(4-Methoxyphenyl)-11-methyl-1-oxo-2,3,4,5-tetrahydro-[1,4]diazepino[1,2-a]indole-9-carbonitrile] | 0.029 |
| 256.5 | N#Cc1cc(-c2ccc(CO)cc2)c2c(c1)cc1n2CCCNC1=O [Example 266, 7-[4-(Hydroxymethyl)phenyl]-1-oxo-2,3,4,5-tetrahydro-[1,4]diazepino[1,2-a]indole-9-carbonitrile] | 0.93 |
| 255 | Cc1ccc(-c2cc(C#N)cc3c(C)c4n(c23)CCNC4=O)cc1F [Example 267, 6-(3-Fluoro-4-methylphenyl)-10-methyl-1-oxo-3,4-dihydro-2H-pyrazino[1,2-a]indole-8-carbonitrile] | 0.71 |
| 225.5 | N#Cc1cccc(-c2cc(C#N)cc3cc4n(c23)CCCNC4=O)c1 [Example 269, 7-(3-Cyanophenyl)-1-oxo-2,3,4,5-tetrahydro-[1,4]diazepino[1,2-a]indole-9-carbonitrile] | 1.09 |
| 278.5 | N#Cc1cc(-c2ccncc2)c2c(c1)cc1n2CCCNC1=O [Example 271, 1-Oxo-7-pyridin-4-yl-2,3,4,5-tetrahydro-[1,4]diazepino[1,2-a]indole-9-carbonitrile] | 0.65 |
| 237.5 | N#Cc1cc(-c2ccccc2)c2c(c1)cc1n2CCCNC1=O [Example 274, 1-Oxo-7-phenyl-2,3,4,5-tetrahydro-[1,4]diazepino[1,2-a]indole-9-carbonitrile] | 1.1 |
| 260.5 | COc1ccc(-c2cc(C#N)cc3cc4n(c23)CCCNC4=O)cc1 [Example 275, 7-(4-Methoxyphenyl)-1-oxo-2,3,4,5-tetrahydro-[1,4]diazepino[1,2-a]indole-9-carbonitrile] | 1.11 |
| 312 | Cc1c2n(c3c(-c4ccc([N+](=O)[O-])cc4)cc(C#N)cc13)CCNC2=O [Example 276, 10-Methyl-6-(4-nitrophenyl)-1-oxo-3,4-dihydro-2H-pyrazino[1,2-a]indole-8-carbonitrile] | 0.11 |
